Reference: patent US7306804B2 (priority 1998, dated 2007)
Like-named read-outs stand apart in the source and are kept apart here.

Experiments:
[1] = system: PBMCs from control and HIV-1 infected chimpanzees; assay type: cell-based, chimpanzee
[2] = system: PBMCs from normal and HIV-positive individuals; assay type: cell-based, human; conditions: for number of HIV+ individuals with positive proliferative responses: 17 HIV+ individuals tested
[3] = system: anti-peptide antibodies in serum; assay type: binding, chimpanzee; parameters: key: +, Positive (Titer > 1:100); −, Negative (Titer < 1:100)
[4] = system: anti-peptide antibodies in serum; assay type: binding, human; parameters: key to Anti-peptide antibody response: +, Positive (titer above control); −, Negative (titer below control)

CRIKQIINMWQGVGKAMYA [Peptide 122]
T-cell proliferative response ([1]; chimpanzee 40, control normal): − (−, Negative (SI < 2.0))
T-cell proliferative response ([1]; chimpanzee 62, HIV-infected): − (−, Negative (SI < 2.0))
T-cell proliferative response ([1]; chimpanzee 69, HIV-infected): + (+, Positive (Stimulation Index [SI] > 2.0))
T-cell proliferative response ([1]; chimpanzee 73, control normal): − (−, Negative (SI < 2.0))
T-cell proliferative response ([1]; chimpanzee 80, HIV-infected): + (+, Positive (Stimulation Index [SI] > 2.0))
T-cell proliferative response ([1]; chimpanzee 99, HIV-infected): − (−, Negative (SI < 2.0))
T-cell proliferative response ([1]; chimpanzee 100, HIV-infected): + (+, Positive (Stimulation Index [SI] > 2.0))
T-cell proliferative response ([1]; chimpanzee 139, HIV-infected): − (−, Negative (SI < 2.0))
T-cell proliferative response ([1]; chimpanzee 175, HIV-infected): + (+, Positive (Stimulation Index [SI] > 2.0))
T-cell proliferative response ([1]; chimpanzee 247, HIV-infected): − (−, Negative (SI < 2.0))
T-cell proliferative response ([1]; chimpanzee 310, HIV-infected): − (−, Negative (SI < 2.0))
number of HIV+ individuals with positive proliferative responses [2]: seven
T-cell proliferative response ([2]; HIV-positive patient MSf): − (−, Negative (SI < 2.0))
T-cell proliferative response ([2]; HIV-positive patient MSm): − (−, Negative (SI < 2.0))
T-cell proliferative response ([2]; HIV-positive patient eight): − (−, Negative (SI < 2.0))
T-cell proliferative response ([2]; HIV-positive patient eleven): − (−, Negative (SI < 2.0))
T-cell proliferative response ([2]; HIV-positive patient fifteen): + (+, Positive (Stimulation Index [SI] > 2.0))
T-cell proliferative response ([2]; HIV-positive patient five): − (−, Negative (SI < 2.0))
T-cell proliferative response ([2]; HIV-positive patient four): − (−, Negative (SI < 2.0))
T-cell proliferative response ([2]; HIV-positive patient fourteen): + (+, Positive (Stimulation Index [SI] > 2.0))
T-cell proliferative response ([2]; HIV-positive patient nine): + (+, Positive (Stimulation Index [SI] > 2.0))
T-cell proliferative response ([2]; HIV-positive patient one): + (+, Positive (Stimulation Index [SI] > 2.0))
T-cell proliferative response ([2]; HIV-positive patient seven): − (−, Negative (SI < 2.0))
T-cell proliferative response ([2]; HIV-positive patient six): − (−, Negative (SI < 2.0))
T-cell proliferative response ([2]; HIV-positive patient ten): + (+, Positive (Stimulation Index [SI] > 2.0))
T-cell proliferative response ([2]; HIV-positive patient thirteen): − (−, Negative (SI < 2.0))
T-cell proliferative response ([2]; HIV-positive patient three): + (+, Positive (Stimulation Index [SI] > 2.0))
T-cell proliferative response ([2]; HIV-positive patient twelve): + (+, Positive (Stimulation Index [SI] > 2.0))
T-cell proliferative response ([2]; HIV-positive patient two): − (−, Negative (SI < 2.0))
T-cell proliferative response ([2]; Normal-1 (HIV-seronegative)): − (−, Negative (SI < 2.0))
T-cell proliferative response ([2]; Normal-2 (HIV-seronegative)): − (−, Negative (SI < 2.0))
Anti-peptide antibody response [3]: −
Anti-peptide antibody response ([3]; chimpanzee 40, control normal): −
Anti-peptide antibody response ([3]; chimpanzee 73, control normal): −
number of HIV+ individuals with positive antibody titers (<1:1280) [4]: None
Anti-peptide antibody response ([4]; HIV-positive patient MSf): −
Anti-peptide antibody response ([4]; HIV-positive patient MSm): −
Anti-peptide antibody response ([4]; HIV-positive patient eight): −
Anti-peptide antibody response ([4]; HIV-positive patient eleven): −
Anti-peptide antibody response ([4]; HIV-positive patient fifteen): −
Anti-peptide antibody response ([4]; HIV-positive patient five): −
Anti-peptide antibody response ([4]; HIV-positive patient four): −
Anti-peptide antibody response ([4]; HIV-positive patient fourteen): −
Anti-peptide antibody response ([4]; HIV-positive patient nine): −
Anti-peptide antibody response ([4]; HIV-positive patient one): −
Anti-peptide antibody response ([4]; HIV-positive patient seven): −
Anti-peptide antibody response ([4]; HIV-positive patient six): −
Anti-peptide antibody response ([4]; HIV-positive patient ten): −
Anti-peptide antibody response ([4]; HIV-positive patient thirteen): −
Anti-peptide antibody response ([4]; HIV-positive patient three): −
Anti-peptide antibody response ([4]; HIV-positive patient twelve): −
Anti-peptide antibody response ([4]; HIV-positive patient two): −
Anti-peptide antibody response ([4]; Normal-1 (HIV-seronegative)): −
Anti-peptide antibody response ([4]; Normal-2 (HIV-seronegative)): −

FLGFLGAAGSTMGAASLTLTVQARQ [Peptide 121]
T-cell proliferative response ([1]; chimpanzee 40, control normal): − (−, Negative (SI < 2.0))
T-cell proliferative response ([1]; chimpanzee 62, HIV-infected): + (+, Positive (Stimulation Index [SI] > 2.0))
T-cell proliferative response ([1]; chimpanzee 69, HIV-infected): + (+, Positive (Stimulation Index [SI] > 2.0))
T-cell proliferative response ([1]; chimpanzee 73, control normal): − (−, Negative (SI < 2.0))
T-cell proliferative response ([1]; chimpanzee 80, HIV-infected): + (+, Positive (Stimulation Index [SI] > 2.0))
T-cell proliferative response ([1]; chimpanzee 99, HIV-infected): − (−, Negative (SI < 2.0))
T-cell proliferative response ([1]; chimpanzee 100, HIV-infected): + (+, Positive (Stimulation Index [SI] > 2.0))
T-cell proliferative response ([1]; chimpanzee 139, HIV-infected): − (−, Negative (SI < 2.0))
T-cell proliferative response ([1]; chimpanzee 175, HIV-infected): + (+, Positive (Stimulation Index [SI] > 2.0))
T-cell proliferative response ([1]; chimpanzee 247, HIV-infected): − (−, Negative (SI < 2.0))
T-cell proliferative response ([1]; chimpanzee 310, HIV-infected): − (−, Negative (SI < 2.0))
number of HIV-infected chimpanzees with positive proliferative responses (SI>2.0) ([1]; nine HIV-infected chimpanzees tested): five
number of HIV+ individuals with positive proliferative responses [2]: five
T-cell proliferative response ([2]; HIV-positive patient MSf): − (−, Negative (SI < 2.0))
T-cell proliferative response ([2]; HIV-positive patient MSm): − (−, Negative (SI < 2.0))
T-cell proliferative response ([2]; HIV-positive patient eight): − (−, Negative (SI < 2.0))
T-cell proliferative response ([2]; HIV-positive patient eleven): − (−, Negative (SI < 2.0))
T-cell proliferative response ([2]; HIV-positive patient fifteen): + (+, Positive (Stimulation Index [SI] > 2.0))
T-cell proliferative response ([2]; HIV-positive patient five): − (−, Negative (SI < 2.0))
T-cell proliferative response ([2]; HIV-positive patient four): − (−, Negative (SI < 2.0))
T-cell proliferative response ([2]; HIV-positive patient fourteen): + (+, Positive (Stimulation Index [SI] > 2.0))
T-cell proliferative response ([2]; HIV-positive patient nine): − (−, Negative (SI < 2.0))
T-cell proliferative response ([2]; HIV-positive patient one): − (−, Negative (SI < 2.0))
T-cell proliferative response ([2]; HIV-positive patient seven): − (−, Negative (SI < 2.0))
T-cell proliferative response ([2]; HIV-positive patient six): + (+, Positive (Stimulation Index [SI] > 2.0))
T-cell proliferative response ([2]; HIV-positive patient ten): + (+, Positive (Stimulation Index [SI] > 2.0))
T-cell proliferative response ([2]; HIV-positive patient thirteen): − (−, Negative (SI < 2.0))
T-cell proliferative response ([2]; HIV-positive patient three): + (+, Positive (Stimulation Index [SI] > 2.0))
T-cell proliferative response ([2]; HIV-positive patient twelve): − (−, Negative (SI < 2.0))
T-cell proliferative response ([2]; HIV-positive patient two): − (−, Negative (SI < 2.0))
T-cell proliferative response ([2]; Normal-1 (HIV-seronegative)): − (−, Negative (SI < 2.0))
T-cell proliferative response ([2]; Normal-2 (HIV-seronegative)): − (−, Negative (SI < 2.0))
Anti-peptide antibody response [3]: −
Anti-peptide antibody response ([3]; chimpanzee 40, control normal): −
Anti-peptide antibody response ([3]; chimpanzee 73, control normal): −
number of HIV+ individuals with positive antibody titers (<1:1280) [4]: one
Anti-peptide antibody response ([4]; HIV-positive patient MSf): −
Anti-peptide antibody response ([4]; HIV-positive patient MSm): −
Anti-peptide antibody response ([4]; HIV-positive patient eight): −
Anti-peptide antibody response ([4]; HIV-positive patient eleven): −
Anti-peptide antibody response ([4]; HIV-positive patient fifteen): −
Anti-peptide antibody response ([4]; HIV-positive patient five): −
Anti-peptide antibody response ([4]; HIV-positive patient four): −
Anti-peptide antibody response ([4]; HIV-positive patient fourteen): −
Anti-peptide antibody response ([4]; HIV-positive patient nine): +
Anti-peptide antibody response ([4]; HIV-positive patient one): −
Anti-peptide antibody response ([4]; HIV-positive patient seven): −
Anti-peptide antibody response ([4]; HIV-positive patient six): −
Anti-peptide antibody response ([4]; HIV-positive patient ten): −
Anti-peptide antibody response ([4]; HIV-positive patient thirteen): −
Anti-peptide antibody response ([4]; HIV-positive patient three): −
Anti-peptide antibody response ([4]; HIV-positive patient twelve): −
Anti-peptide antibody response ([4]; HIV-positive patient two): −
Anti-peptide antibody response ([4]; Normal-1 (HIV-seronegative)): −
Anti-peptide antibody response ([4]; Normal-2 (HIV-seronegative)): −

phytohemagglutinin [PHA, reference compound]
proliferation ([1]; all nine HIV-infected chimpanzees): high levels of proliferation
cpm values, proliferation ([1]; two control uninfected chimpanzees): 15832-20504 cpm
SI values, proliferation ([2]; HIV+ individuals): 20.3-23.3
cpm values, proliferation ([2]; HIV+ individuals): 108361-127640 cpm
SI values, proliferation ([2]; normal subjects): 131-183
